Values after ≈ are worked out from the molar mass of the structure shown. Where two headings read alike, the source gives them in different places.
What was measured:
[1] = test system: C. difficile clinical isolates; assay: MIC determination by microbroth dilution per CLSI guideline (Example 1); format: cell-based, Clostridium difficile; conditions: Clostridioides difficile
[2] = test system: 24 clinical isolate strains of C. difficile; assay: Additional MIC determinations, antibacterial activity by OD600 (Example 3); format: cell-based, Clostridium difficile
[3] = test system: rats; conditions: p.o.; cited from earlier work
[4] = test system: mice; conditions: p.o.; cited from earlier work
[5] = test system: cats; conditions: p.o.; cited from earlier work
[6] = cited from earlier work
[7] = via the urinary tract or by enzymatic metabolism in the liver; cited from earlier work
[8] = Table 3, strain 7-6011209, read-out: C. difficile Strain 7-6011209 MIC
[9] = Table 3, strain 12055, read-out: C. difficile Strain 12055 MIC

Compound: O=C(Nc1ccc(Br)cc1)c1cc(Br)cc(Br)c1O [Tribromsalan, 3,4′,5-tribromosalicylanilide]
- MIC ([1]; read-out: C. difficile Strain 7-6011209 MIC): 0.125 µg/mL (≈ 0.278 µM)
- MIC ([1]; read-out: C. difficile Strain 12055 MIC): 0.25 µg/mL (≈ 0.556 µM)
- MIC ([2]; strain 7-5085357 (ST028)): 0.016 µg/mL (≈ 0.0356 µM)
- MIC ([2]; strain 7-6011209 (ST002)): < 0.008 µg/mL
- MIC ([2]; strain 7-6778909 (ST016)): < 0.008 µg/mL
- MIC ([2]; strain 7-6854508 (ST013)): 0.031 µg/mL (≈ 0.0689 µM)
- MIC ([2]; strain 7-6870430 (ST001)): 0.016 µg/mL (≈ 0.0356 µM)
- MIC ([2]; strain 7-7104022 (ST103)): 1 µg/mL (≈ 2.22 µM)
- MIC ([2]; strain 7-7116411 (ST005)): < 0.008 µg/mL
- MIC ([2]; strain 7-7124449 (ST009)): 0.063 µg/mL (≈ 0.14 µM)
- MIC ([2]; strain 7-7149204 (ST006)): < 0.008 µg/mL
- MIC ([2]; strain 7-7150288 (ST003)): < 0.008 µg/mL
- MIC ([2]; strain 7-7150318 (ST059)): < 0.008 µg/mL
- MIC ([2]; strain 7-7150628 (ST034)): 0.031 µg/mL (≈ 0.0689 µM)
- MIC ([2]; strain 7-7150997 (ST049)): 0.16 µg/mL (≈ 0.356 µM)
- MIC ([2]; strain 7-7154992 (ST139)): 0.063 µg/mL (≈ 0.14 µM)
- MIC ([2]; strain 7-7200552 (ST017)): 0.25 µg/mL (≈ 0.556 µM)
- MIC ([2]; strain 12055): 0.016 µg/mL (≈ 0.0356 µM)
- MIC ([2]; strain 12060): 0.063 µg/mL (≈ 0.14 µM)
- MIC ([2]; strain 12061): 0.016 µg/mL (≈ 0.0356 µM)
- MIC ([2]; strain 12062): < 0.008 µg/mL
- MIC ([2]; strain 12063): 0.016 µg/mL (≈ 0.0356 µM)
- MIC ([2]; strain 12064): < 0.008 µg/mL
- MIC ([2]; strain 12065): 0.016 µg/mL (≈ 0.0356 µM)
- MIC ([2]; strain 12066): 0.031 µg/mL (≈ 0.0689 µM)

Compound: O=C(Nc1cc(Cl)cc(Cl)c1O)c1c(O)c(Cl)cc(Cl)c1Cl [Oxyclozanide]
- MIC [1, 8]: 0.25 µg/mL (≈ 0.623 µM)
- MIC [1, 9]: 0.25 µg/mL (≈ 0.623 µM)
- MIC ([2]; strain 7-5085357 (ST028)): 0.016 µg/mL (≈ 0.0399 µM)
- MIC ([2]; strain 7-6011209 (ST002)): < 0.008 µg/mL
- MIC ([2]; strain 7-6778909 (ST016)): < 0.008 µg/mL
- MIC ([2]; strain 7-6854508 (ST013)): < 0.008 µg/mL
- MIC ([2]; strain 7-6870430 (ST001)): < 0.008 µg/mL
- MIC ([2]; strain 7-7104022 (ST103)): < 0.008 µg/mL
- MIC ([2]; strain 7-7116411 (ST005)): 0.125 µg/mL (≈ 0.311 µM)
- MIC ([2]; strain 7-7124449 (ST009)): 0.031 µg/mL (≈ 0.0772 µM)
- MIC ([2]; strain 7-7149204 (ST006)): < 0.008 µg/mL
- MIC ([2]; strain 7-7150288 (ST003)): < 0.008 µg/mL
- MIC ([2]; strain 7-7150318 (ST059)): 0.016 µg/mL (≈ 0.0399 µM)
- MIC ([2]; strain 7-7150628 (ST034)): 0.31 µg/mL (≈ 0.772 µM)
- MIC ([2]; strain 7-7150997 (ST049)): < 0.008 µg/mL
- MIC ([2]; strain 7-7154992 (ST139)): < 0.008 µg/mL
- MIC ([2]; strain 7-7200552 (ST017)): 0.25 µg/mL (≈ 0.623 µM)
- MIC ([2]; strain 12055): 0.016 µg/mL (≈ 0.0399 µM)
- MIC ([2]; strain 12060): 0.031 µg/mL (≈ 0.0772 µM)
- MIC ([2]; strain 12061): 0.016 µg/mL (≈ 0.0399 µM)
- MIC ([2]; strain 12062): < 0.008 µg/mL
- MIC ([2]; strain 12063): 0.016 µg/mL (≈ 0.0399 µM)
- MIC ([2]; strain 12064): < 0.008 µg/mL
- MIC ([2]; strain 12065): 0.031 µg/mL (≈ 0.0772 µM)
- MIC ([2]; strain 12066): 0.125 µg/mL (≈ 0.311 µM)
- LD50 [3]: 980 to 3519 mg/kg

Compound: O=C(Nc1ccc([N+](=O)[O-])cc1Cl)c1cc(Cl)ccc1O [Niclosamide, 2′,5-dichloro-4′-nitrosalicylanilide]
- MIC ([1]; isolate 7-5085357, read-out: MIC of clinical isolates of C. difficile): 0.125 µg/mL
- MIC ([1]; isolate 7-5779928, read-out: MIC of clinical isolates of C. difficile): 0.25 µg/mL
- MIC ([1]; isolate 7-6008526, read-out: MIC of clinical isolates of C. difficile): 0.25 µg/mL
- MIC ([1]; isolate 7-6011209, read-out: MIC of clinical isolates of C. difficile): 0.06 µg/mL
- MIC ([1]; isolate 7-6778909, read-out: MIC of clinical isolates of C. difficile): 0.25 µg/mL
- MIC ([1]; isolate 7-6854508, read-out: MIC of clinical isolates of C. difficile): 0.125 µg/mL
- MIC ([1]; isolate 7-6870430, read-out: MIC of clinical isolates of C. difficile): 0.25 µg/mL
- MIC ([1]; isolate 7-7104022, read-out: MIC of clinical isolates of C. difficile): 0.125 µg/mL
- MIC ([1]; isolate 7-7116411, read-out: MIC of clinical isolates of C. difficile): 0.125 µg/mL
- MIC ([1]; isolate 7-7124449, read-out: MIC of clinical isolates of C. difficile): 0.125 µg/mL
- MIC ([1]; isolate 7-7149204, read-out: MIC of clinical isolates of C. difficile): 0.125 µg/mL
- MIC ([1]; isolate 7-7150288, read-out: MIC of clinical isolates of C. difficile): 0.125 µg/mL
- MIC ([1]; isolate 7-7150318, read-out: MIC of clinical isolates of C. difficile): 0.125 µg/mL
- MIC ([1]; isolate 7-7150628, read-out: MIC of clinical isolates of C. difficile): 0.125 µg/mL
- MIC ([1]; isolate 7-7150997, read-out: MIC of clinical isolates of C. difficile): 0.125 µg/mL
- MIC ([1]; isolate 7-7151551, read-out: MIC of clinical isolates of C. difficile): 0.25 µg/mL
- MIC ([1]; isolate 7-7152701, read-out: MIC of clinical isolates of C. difficile): 0.25 µg/mL
- MIC ([1]; isolate 7-7153872, read-out: MIC of clinical isolates of C. difficile): 0.5 µg/mL
- MIC ([1]; isolate 7-7154712 (listed twice), read-out: MIC of clinical isolates of C. difficile): 0.25 µg/mL
- MIC ([1]; isolate 7-7154992, read-out: MIC of clinical isolates of C. difficile): 0.25 µg/mL
- MIC ([1]; isolate 7-7156197, read-out: MIC of clinical isolates of C. difficile): 0.25 µg/mL
- MIC ([1]; isolate 7-7200552, read-out: MIC of clinical isolates of C. difficile): 0.25 µg/mL
- MIC ([1]; isolate 7-7363761, read-out: MIC of clinical isolates of C. difficile): 0.125 µg/mL
- MIC ([1]; isolate 12055, read-out: MIC of clinical isolates of C. difficile): 0.125 µg/mL
- MIC ([1]; isolate 12060, read-out: MIC of clinical isolates of C. difficile): 0.125 µg/mL
- MIC ([1]; isolate 12061, read-out: MIC of clinical isolates of C. difficile): 0.06 µg/mL
- MIC ([1]; isolate 12062, read-out: MIC of clinical isolates of C. difficile): 0.06 µg/mL
- MIC ([1]; isolate 12063, read-out: MIC of clinical isolates of C. difficile): 0.06 µg/mL
- MIC ([1]; isolate 12064, read-out: MIC of clinical isolates of C. difficile): 0.06 µg/mL
- MIC ([1]; niclosamide, matches Table 2, read-out: Highest MIC observed): 0.5 µg/mL (≈ 1.53 µM)
- MIC90 ([1]; footnote b: data from tables herein): 0.06 to 0.25 µg/mL (≈ 0.183 to 0.764 µM)
- LD50 [4]: > 5000 mg/kg
- LD50 [5]: > 1000 mg/kg
- solubility in water [6]: poorly soluble in water
- clearance from the bloodstream [7]: quickly cleared

Compound: CC(=O)Oc1c(I)cc(I)cc1C(=O)Nc1ccc(Cl)cc1 [Clioxanide]
- MIC [1, 8]: 0.031 µg/mL (≈ 0.0572 µM)
- MIC [1, 9]: < 0.08 µg/mL
- MIC ([2]; strain 7-5085357 (ST028)): < 0.008 µg/mL
- MIC ([2]; strain 7-6011209 (ST002)): < 0.008 µg/mL
- MIC ([2]; strain 7-6778909 (ST016)): < 0.008 µg/mL
- MIC ([2]; strain 7-6854508 (ST013)): < 0.008 µg/mL
- MIC ([2]; strain 7-6870430 (ST001)): < 0.008 µg/mL
- MIC ([2]; strain 7-7104022 (ST103)): < 0.008 µg/mL
- MIC ([2]; strain 7-7116411 (ST005)): 0.125 µg/mL (≈ 0.231 µM)
- MIC ([2]; strain 7-7124449 (ST009)): < 0.008 µg/mL
- MIC ([2]; strain 7-7149204 (ST006)): < 0.008 µg/mL
- MIC ([2]; strain 7-7150288 (ST003)): < 0.008 µg/mL
- MIC ([2]; strain 7-7150318 (ST059)): < 0.008 µg/mL
- MIC ([2]; strain 7-7150628 (ST034)): < 0.008 µg/mL
- MIC ([2]; strain 7-7150997 (ST049)): < 0.008 µg/mL
- MIC ([2]; strain 7-7154992 (ST139)): < 0.008 µg/mL
- MIC ([2]; strain 7-7200552 (ST017)): < 0.008 µg/mL
- MIC ([2]; strain 7-7363761 (ST008)): < 0.008 µg/mL
- MIC ([2]; strain 12055): < 0.008 µg/mL
- MIC ([2]; strain 12060): < 0.008 µg/mL
- MIC ([2]; strain 12061): < 0.008 µg/mL
- MIC ([2]; strain 12062): < 0.008 µg/mL
- MIC ([2]; strain 12063): < 0.008 µg/mL
- MIC ([2]; strain 12064): < 0.008 µg/mL
- MIC ([2]; strain 12065): < 0.008 µg/mL
- MIC ([2]; strain 12066): 0.063 µg/mL (≈ 0.116 µM)

Reference: US11529361B2, “Halogenated salicylanilides for treating Clostridium infections” (UNION therapeutics A/S, priority 2015, dated 2022)
